Results from PMC5834809 (Cancer Science, 2018).

Experiments:
[1] = system: Japanese women with HR+ ABC; conditions: first‐line therapy; cited from earlier work
[2] = system: Japanese postmenopausal patients with ER+/HER2− advanced breast cancer; test: Exposure to study drugs and dose modifications; format: in vivo, human; conditions: for Median average duration of dose interruption (range): during total cycles
[3] = system: patients with advanced solid tumors refractory to standard therapy; conditions: single‐agent, Japanese patients, phase I part 1; cited from earlier work
[4] = Plasma palbociclib steady-state pharmacokinetics; format: in vivo, human
[5] = system: non‐Japanese postmenopausal women with ER+ and HER2− ABC; conditions: PALOMA‐1; letrozole 2.5 mg QD alone or with palbociclib 125 mg QD 3/1 schedule; cited from earlier work
[6] = system: postmenopausal women with ER+/HER2− ABC; conditions: PALOMA‐2; letrozole with or without palbociclib (3/1 schedule); cited from earlier work

Row | Structure (SMILES) | Median time to progression [1] | Cycle delay ([2]; N = 42) | Dose interruption ([2]; N = 42) | Median average duration of dose interruption (range) [2] | Median average duration of cycle delay (range) ([2]; in vivo) | Median time to first dose interruption (range) ([2]; in vivo) | further results
1 | C=C1C[C@@H]2[C@H](CC[C@]3(C)C(=O)CC[C@@H]23)[C@@]2(C)C=CC(=O)C=C12 [exemestane] | approximately 12 months |  |  |  |  |  | 
2 | CC(C)(C#N)c1cc(Cn2cncn2)cc(C(C)(C)C#N)c1 [anastrozole] | approximately 12 months |  |  |  |  |  | 
3 | CC(=O)c1c(C)c2cnc(Nc3ccc(N4CCNCC4)cn3)nc2n(C2CCCC2)c1=O [palbociclib] |  | 39 (92.9) n (%) | 35 (83.3) n (%) | 5.5 (1.0‐8.5) d | 7 (5‐47) d | 15 (5‐124) d | ≥1 dose reduction ([2]; N = 42): 25 (59.5) n (%); Median time to dose reduction (range), first dose reduction ([2]; in vivo): 64 (29‐232) d; Median time to dose reduction (range), second dose reduction ([2]; in vivo): 114 (64‐415) d; Patients with a dose reduction to 75 mg ([2]; maximum dose reduction, N = 42): 8 (19.0) n (%); Patients with a dose reduction to 100 mg ([2]; maximum dose reduction, N = 42): 17 (40.5) n (%); Maximum tolerated dose [3]: 125 mg; Tmax ([4]; human, plasma, oral): 4.9 h; Ctrough, predose concentration on cycle 2/day 15 ([4]; with letrozole, N = 30, geometric mean (geometric %CV)): 86.8 (40) ng/mL; Ctrough, predose concentration on cycle 1/day 15 ([4]; with letrozole, N = 32, geometric mean (geometric %CV)): 89.4 (44) ng/mL; Ctrough, predose concentration on day 15, cycles 1 and 2 ([4]; with letrozole, N = 38, geometric mean of within‐patient mean Ctrough (geometric %CV)): 90.1 (42) ng/mL
4 | N#Cc1ccc(C(c2ccc(C#N)cc2)n2cncn2)cc1 [letrozole] |  | 8 (19.0) n (%) | 30 (71.4) n (%) | 1.0 (1.0‐24.5) d | 7 (5‐47) d | 107 (5‐404) d | Median PFS [5]: 10.2 months; Median PFS [6]: 14.5 months
